What was measured:
Bile acid receptor = target: T1, Bile acid receptor (Homo sapiens, UniProt Q96RI1); assay: Agonist activity at FXR LBD (unknown origin) using fluorescein-SRC2-2 as substrate incubated for 3 hrs by TR-FRET assay
T1 sequence (Q96RI1 whole entry): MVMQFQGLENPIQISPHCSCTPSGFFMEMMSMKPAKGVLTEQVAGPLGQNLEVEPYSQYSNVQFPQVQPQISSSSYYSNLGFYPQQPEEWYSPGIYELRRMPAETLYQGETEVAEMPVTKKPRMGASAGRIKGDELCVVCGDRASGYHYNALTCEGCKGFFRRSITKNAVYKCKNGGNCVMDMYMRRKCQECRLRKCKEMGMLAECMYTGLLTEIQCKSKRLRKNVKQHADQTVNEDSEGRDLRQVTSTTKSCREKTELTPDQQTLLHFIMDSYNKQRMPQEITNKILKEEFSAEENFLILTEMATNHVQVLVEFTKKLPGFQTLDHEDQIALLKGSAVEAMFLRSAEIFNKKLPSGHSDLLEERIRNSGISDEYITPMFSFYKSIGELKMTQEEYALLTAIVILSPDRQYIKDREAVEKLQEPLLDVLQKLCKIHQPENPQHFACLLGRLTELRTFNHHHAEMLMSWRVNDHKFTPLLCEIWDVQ

[1] = Sub-acute toxicity in ICR mouse assessed as animal death at 500 mg/kg, po qd treated for 10 days; format: organism-based; conditions: in vivo, 240 h, time 10 day
[2] = Sub-acute toxicity in ICR mouse assessed as abnormal behaviour at 500 mg/kg, po qd treated for 10 days; format: organism-based; conditions: in vivo, 240 h, time 10 day
[3] = Sub-acute toxicity in ICR mouse assessed as change in serum AST level at 500 mg/kg, po qd treated for 10 days; format: organism-based; conditions: in vivo, 240 h, time 10 day
[4] = Sub-acute toxicity in ICR mouse assessed as change in serum ALT level at 500 mg/kg, po qd treated for 10 days; format: organism-based; conditions: in vivo, 240 h, time 10 day
[5] = Sub-acute toxicity in ICR mouse assessed as change in serum ALP level at 500 mg/kg, po qd treated for 10 days; format: organism-based; conditions: in vivo, 240 h, time 10 day
[6] = Sub-acute toxicity in ICR mouse assessed as change in serum TBIL level at 500 mg/kg, po qd treated for 10 days; format: organism-based; conditions: in vivo, 240 h, time 10 day
[7] = Sub-acute toxicity in ICR mouse assessed as change in serum DBIL level at 500 mg/kg, po qd treated for 10 days; format: organism-based; conditions: in vivo, 240 h, time 10 day
[8] = Sub-acute toxicity in ICR mouse assessed as change in serum TG level at 500 mg/kg, po qd treated for 10 days; format: organism-based; conditions: in vivo, 240 h, time 10 day
[9] = Sub-acute toxicity in ICR mouse assessed as change in serum TC level at 500 mg/kg, po qd treated for 10 days; format: organism-based; conditions: in vivo, 240 h, time 10 day
[10] = Sub-acute toxicity in ICR mouse assessed as change in serum creatinine level at 500 mg/kg, po qd treated for 10 days; format: organism-based; conditions: in vivo, 240 h, time 10 day
[11] = Sub-acute toxicity in ICR mouse assessed as change in serum urea level at 500 mg/kg, po qd treated for 10 days; format: organism-based; conditions: in vivo, 240 h, time 10 day
[12] = Sub-acute toxicity in ICR mouse assessed as anomaly in heart at 500 mg/kg, po qd treated for 10 days; format: organism-based; conditions: in vivo, 240 h, time 10 day
[13] = Sub-acute toxicity in ICR mouse assessed as anomaly in liver at 500 mg/kg, po qd treated for 10 days; format: organism-based; conditions: in vivo, 240 h, time 10 day
[14] = Sub-acute toxicity in ICR mouse assessed as anomaly in spleen at 500 mg/kg, po qd treated for 10 days; format: organism-based; conditions: in vivo, 240 h, time 10 day
[15] = Sub-acute toxicity in ICR mouse assessed as anomaly in lung at 500 mg/kg, po qd treated for 10 days; format: organism-based; conditions: in vivo, 240 h, time 10 day
[16] = Sub-acute toxicity in ICR mouse assessed as anomaly in kidney at 500 mg/kg, po qd treated for 10 days; format: organism-based; conditions: in vivo, 240 h, time 10 day

Row | SMILES | EC50 (Bile acid receptor) | further results
1 | CC(C)CN(c1ccc(-c2cccc(C(=O)O)c2)cc1)S(=O)(=O)c1c(Cl)cccc1Cl | > 10 µM | –
2 | CC(C)CN(c1ccc(-c2ccc(C(N)=O)cc2)cc1)S(=O)(=O)c1c(Cl)cccc1Cl | > 10 µM | –
3 | CC(C)CN(c1ccc(-c2ccc(OCC(=O)O)c(F)c2)cc1)S(=O)(=O)c1c(Cl)cccc1Cl | – | Activity [1]: Non-Toxic; Activity [2]: Non-Toxic; Activity [3]: Non-Toxic; Activity [4]: Non-Toxic; Activity [5]: Non-Toxic; Activity [6]: Non-Toxic; Activity [7]: Non-Toxic; Activity [8]: Non-Toxic; Activity [9]: Non-Toxic; Activity [10]: Non-Toxic; Activity [11]: Non-Toxic; Activity [12]: Non-Toxic; Activity [13]: Non-Toxic; Activity [14]: Non-Toxic; Activity [15]: Non-Toxic; Activity [16]: Non-Toxic
4 | Cc1ccc(S(=O)(=O)N(CC(C)C)c2ccc(-c3ccc(CCC(=O)O)cc3)cc2)cc1 | > 10 µM | –
5 | Cc1ccc(S(=O)(=O)N(CC(C)C)c2ccc(-c3ccc(OCC(=O)O)c(F)c3)cc2)cc1 | > 10 µM | –
6 | CC(C)CN(c1ccc(COc2cccc(CC(=O)O)c2)cc1)S(=O)(=O)c1c(Cl)cccc1Cl | > 10 µM | –
7 | CC(C)CN(c1ccc(-c2cccc(C3(C(=O)O)CC3)c2)cc1)S(=O)(=O)c1c(Cl)cccc1Cl | > 10 µM | –
8 | CC#CC(CC(=O)O)c1ccc(OCc2ccc(N(CC(C)C)S(=O)(=O)c3c(Cl)cccc3Cl)cc2)cc1 (stereo not given) | > 10 µM | –
9 | CC(C)CN(c1ccc(-c2ccc(OC(C)C(=O)O)c(F)c2)cc1)S(=O)(=O)c1c(Cl)cccc1Cl (stereo not given) | 8.7 µM | –
10 | CC(C)CN(c1ccc(-c2ccc(OCC(=O)O)cc2)cc1)S(=O)(=O)c1c(Cl)cccc1Cl | 0.89 µM | –
11 | CC(C)CN(c1ccc(-c2ccc(C(=O)NC3CC3)cc2)cc1)S(=O)(=O)c1c(Cl)cccc1Cl | > 10 µM | –
12 | CC(C)CN(c1ccc(-c2ccc(C3(C(=O)O)CC3)cc2)cc1)S(=O)(=O)c1c(Cl)cccc1Cl | > 10 µM | –
13 | Cc1ccc(S(=O)(=O)N(CC(C)C)c2ccc(-c3ccc(C(=O)O)cc3)cc2)cc1 | > 10 µM | –
14 | CC(C)CN(c1ccc(-c2cccc(CC(=O)O)c2)cc1)S(=O)(=O)c1c(Cl)cccc1Cl | > 10 µM | –
15 | CC(C)CN(c1ccc(COc2ccc3c(CC(=O)O)coc3c2)cc1)S(=O)(=O)c1c(Cl)cccc1Cl | > 10 µM | –
16 | CC(C)CN(c1ccc(-c2ccc(OC(C)(C)C(=O)O)c(F)c2)cc1)S(=O)(=O)c1c(Cl)cccc1Cl | > 10 µM | –
17 | CC(C)CN(c1ccc(-c2ccc(OCC(=O)O)c(F)c2)cc1)S(=O)(=O)C1CCCCC1 | > 10 µM | –
18 | CC(C)CN(c1ccc(-c2ccc(C(=O)O)cc2)cc1)S(=O)(=O)c1c(Cl)cccc1Cl | 3.5 µM | –
19 | O=C(O)c1cccc(-c2ccc(N(CC3CC3)S(=O)(=O)c3c(Cl)cccc3Cl)cc2)c1 | > 10 µM | –
20 | CC(C)CN(c1ccc(-c2ccc(CCC(=O)O)cc2)cc1)S(=O)(=O)c1c(Cl)cccc1Cl | 6.5 µM | –
